The source of these data is patent publication US6413517B1, “Identification of broadly reactive DR restricted epitopes” (Epimmune, Inc., priority 1997, dated 2002).

Where two headings read alike, the source gives them in different places.

The target of experiment [1] is T1, DRB1*0401 (DR4w4) (Homo sapiens, UniProt P01903+P01911, A100K/A169T/F76Y/I96L/K127E/L162R/M171V/N62H/P40V/Q125Y/R42H/S133A/S149N/S66Y/V115G/V209L/W38E).
T1 construct: Epstein-Barr virus (EBV) transformed homozygous cell lines were used as sources; endogenous in cells; host or cells: PREISS (EBV-transformed homozygous B cell line)
Kind of experiment: biochemical. It is filed as binding.

For experiment [2], the target named is T2, DRB1*0301 (DR3w17) (Homo sapiens, UniProt P01903+P01911, A100K/A102G/A103R/A169T/F55Y/I96L/K41T/L162R/M171V/P40S/Q125H/Q178H/Q39Y/R42S/S66N/T106N/T262R/W38E/Y61H). In words: biochemical. The conditions noted are these: Binding Capacity (IC50% nM) DR3.
For experiment [3], the target named is T3, DRB1*0802 (DR8w2) (Homo sapiens, UniProt P01903+P01911, A100R/A103L/A169T/F76Y/H45Y/I96F/K41T/L162R/M171V/P40S/Q125H/Q178H/Q39Y/Q99D/R218S/R42G/S66Y/V115G/W38E).
T3 construct: Epstein-Barr virus (EBV) transformed homozygous cell lines were used as sources; endogenous in cells; host or cells: OLL (EBV-transformed homozygous B cell line)
In words: biochemical. It is filed as binding.

Experiment [4] has as its target T4, DRB1*1201 (DR5w12) (Homo sapiens, UniProt P01903+P01911, A100R/A169T/D57E/D86V/F55L/H45Y/K41T/L162R/M171V/P40S/Q125H/Q178H/Q39Y/Q99D/R42G/S66L/T262R/V114A/V67L/W38E/Y59H/Y61H/Y89S).
T4 construct: Epstein-Barr virus (EBV) transformed homozygous cell lines were used as sources; endogenous in cells; host or cells: Herluf (EBV-transformed homozygous B cell line)
Kind of experiment: biochemical. It is filed as binding.

In experiment [5] the target is T5, DRB1*1101 (DR5w11) (Homo sapiens, UniProt P01903+P01911, A100R/A169T/A87E/I96F/K41T/L162R/M171V/P40S/Q125H/Q178H/Q39Y/Q99D/R42S/S66Y/T262R/V115G/W38E).
T5 construct: Epstein-Barr virus (EBV) transformed homozygous cell lines were used as sources; endogenous in cells; host or cells: SWEIG (EBV-transformed homozygous B cell line)
In words: biochemical. It is filed as binding.

The target in experiment [6] is T2, DRB1*0301 (DR3w17). To be noted: read-out: Binding Capacity (IC 50% nM) Other Alleles DR3.
In experiment [7] the target is T6, DRB1*0405 (DR4w15) (Homo sapiens, UniProt P01903+P01911, A100R/A169T/D86S/F76Y/I96L/K127E/L162R/M171V/N62H/P40V/Q125Y/R42H/S133A/S149N/S66Y/V115G/V209L/W38E).
T6 construct: Epstein-Barr virus (EBV) transformed homozygous cell lines were used as sources; endogenous in cells; host or cells: KT3 (EBV-transformed homozygous B cell line)
Kind of experiment: biochemical. It is filed as binding.

T5 sequence (P01903 26-254, other chains not shown): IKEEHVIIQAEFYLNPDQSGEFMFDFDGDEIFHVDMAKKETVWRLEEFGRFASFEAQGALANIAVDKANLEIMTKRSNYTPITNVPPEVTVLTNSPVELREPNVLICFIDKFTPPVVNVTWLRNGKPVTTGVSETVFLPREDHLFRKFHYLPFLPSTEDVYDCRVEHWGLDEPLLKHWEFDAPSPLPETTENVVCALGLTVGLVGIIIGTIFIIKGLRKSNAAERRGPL

For `CC[C@H](C)[C@H](NC(=O)[C@H](CO)NC(=O)[C@H](CO)NC(=O)[C@H](CC(N)=O)NC(=O)[C@@H](NC(=O)[C@@H](NC(=O)[C@H](CC(N)=O)NC(=O)[C@@H](N)Cc1ccccc1)C(C)C)C(C)C)C(=O)NCC(=O)N[C@@H](CC(C)C)C(=O)N[C@H](C(=O)N[C@@H](CCSC)C(=O)N[C@H](C(=O)N[C@@H](CC(C)C)C(=O)N[C@@H](CO)C(=O)O)C(C)C)[C@@H](C)CC` [Peptide 27.384], the IC50 was greater than 10000 nM in experiment [1] (Binding Capacity (IC50% nM) DR4w4); greater than 1000 nM in experiment [1] (read-out: Binding Capacity (IC 50% nM) DR1,4,7 DR4w4); greater than 10000 nM in experiment [2]; greater than 10000 nM in experiment [3] (Binding Capacity (IC50% nM) DR8w2); greater than 1000 nM in experiment [3] (read-out: Binding Capacity (IC 50% nM) Other Alleles DR8w2); greater than 10000 nM in experiment [4] (Binding Capacity (IC50% nM) DR5w12). The IC50 in experiment [4] (read-out: Binding Capacity (IC 50% nM) Other Alleles DR5w12) is greater than 1000 nM; in experiment [5] (Binding Capacity (IC50% nM) DR5w11) it was greater than 10000 nM; in experiment [5] (read-out: Binding Capacity (IC 50% nM) Other Alleles DR5w11), greater than 1000 nM; in experiment [6] it was greater than 1000 nM; in experiment [7] (Binding Capacity (IC50% nM) DR4w15) it was greater than 10000 nM; in experiment [7] (read-out: Binding Capacity (IC 50% nM) Other Alleles DR4w15), greater than 1000 nM.
